Assay results from article PMC11606603, “The membrane domains of mammalian adenylyl cyclases are lipid receptors” (eLife, 2024).
Values joined by “and” are separate entries in the source; they are usually repeats but may differ in a detail not shown here. Identical values can stand only once.

Tests used:
Type in all cases: biochemical
mAC6 = molecular target: T1, mAC6 (Homo sapiens, UniProt O43306); experiment: AC assay, Gsα-stimulated mAC6 in membranes from transfected HEK293 cells; conditions: 20µM fatty acid concentration
T1 construct: Human mAC genes were from GenScript and fitted with a C-terminal FLAG-tag; FLAG (C); made in house; host or cells: HEK293, permanently transfected; membrane preparation
Method in brief: (§1)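 Human AC, FLAG-tagged, stably expressed in HEK293; membranes used as enzyme. 1 mM ATP, 2 mM MgCl2, ATP regeneration, MOPS pH 7.5; cAMP kit readout.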

mAC4 = molecular target: T2, mAC4 (Homo sapiens, UniProt Q8NFM4); experiment: AC assay, Gsα-stimulated mAC4 in membranes from transfected HEK293 cells; conditions: 20 µM fatty acid; 300 nM Gsα; single experiments
T2 construct: Human mAC genes were from GenScript and fitted with a C-terminal FLAG-tag; FLAG (C); made in house; host or cells: HEK293, permanently transfected; membrane preparation
T2 sequence (Q8NFM4 1-1077): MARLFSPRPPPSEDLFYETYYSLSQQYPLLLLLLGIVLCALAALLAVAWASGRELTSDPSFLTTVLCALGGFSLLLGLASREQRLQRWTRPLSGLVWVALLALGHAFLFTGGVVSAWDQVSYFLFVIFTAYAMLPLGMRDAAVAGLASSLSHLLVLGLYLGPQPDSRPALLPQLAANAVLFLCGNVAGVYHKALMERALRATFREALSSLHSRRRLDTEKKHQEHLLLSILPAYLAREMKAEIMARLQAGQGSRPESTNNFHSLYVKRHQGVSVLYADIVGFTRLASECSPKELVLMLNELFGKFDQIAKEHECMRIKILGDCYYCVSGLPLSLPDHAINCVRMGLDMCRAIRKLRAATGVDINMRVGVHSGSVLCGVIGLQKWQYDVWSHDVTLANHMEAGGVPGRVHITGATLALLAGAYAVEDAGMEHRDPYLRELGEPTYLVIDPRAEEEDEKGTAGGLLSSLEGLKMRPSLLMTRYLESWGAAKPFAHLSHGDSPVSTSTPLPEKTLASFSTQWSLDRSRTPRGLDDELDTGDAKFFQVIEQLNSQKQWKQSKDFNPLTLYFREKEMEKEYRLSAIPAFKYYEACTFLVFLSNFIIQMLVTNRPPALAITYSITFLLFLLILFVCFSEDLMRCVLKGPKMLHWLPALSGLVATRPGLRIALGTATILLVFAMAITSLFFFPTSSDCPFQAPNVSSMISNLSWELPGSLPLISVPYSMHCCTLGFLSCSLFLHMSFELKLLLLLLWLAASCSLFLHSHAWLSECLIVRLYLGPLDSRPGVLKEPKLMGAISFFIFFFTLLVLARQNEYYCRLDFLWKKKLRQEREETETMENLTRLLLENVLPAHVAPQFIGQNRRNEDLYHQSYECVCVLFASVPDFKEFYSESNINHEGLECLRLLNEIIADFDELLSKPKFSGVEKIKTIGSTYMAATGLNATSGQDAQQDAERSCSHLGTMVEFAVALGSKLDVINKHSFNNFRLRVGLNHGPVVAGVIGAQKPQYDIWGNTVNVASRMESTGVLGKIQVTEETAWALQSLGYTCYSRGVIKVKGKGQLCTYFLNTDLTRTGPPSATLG
Method in brief: as §1

mAC2 = molecular target: T3, mAC2 (Homo sapiens, UniProt Q08462); experiment: AC assay, Gsα-stimulated mAC2 in membranes from transfected HEK293 cells
T3 construct: Human mAC genes were from GenScript and fitted with a C-terminal FLAG-tag; FLAG (C); made in house; host or cells: HEK293, permanently transfected; membrane preparation
Method in brief: as §1

mAC8 = molecular target: T4, mAC8 (Homo sapiens, UniProt P40145); experiment: AC assay, Gsα-stimulated mAC8 in membranes from transfected HEK293 cells; conditions: 20µM fatty acid concentration
T4 construct: Human mAC genes were from GenScript and fitted with a C-terminal FLAG-tag; FLAG (C); made in house; host or cells: HEK293, permanently transfected; membrane preparation
Protocol: hAC sequences were from NCBI were: ADCY1: NM_021116.3; ADCY2: NM_020546.2; ADCY3: NM_004036.4; ADCY4: NM_001198568.2; ADCY5: NM_183357.2; ADCY6: NM_015270.4; ADCY7: NM_001114.4; ADCY8: NM_001115.2; ADCY9: NM_001116.3. Human mAC genes were from GenScript and fitted with a C-terminal FLAG-tag. […] The gene was synthesized by GenScript. HEK293 cells were maintained in Dulbeccos Modified Eagle Medium (DMEM) with 10% fetal bovine serum at 37°C and 5% CO2. Transfection with AC plasmids was with PolyJet (SignaGen, Frederick, MD, USA). Permanent cell lines were generated by selection for 7 days with 600 µg/ml G418 and maintained with 300 µg/ml For membrane preparation, cells were tyrpsinized, collected by centrifugation (3000 × g, 5 min) and lysed and homogenized in 20 mM HEPES, pH 7.5, 1 mM Ethylenediaminetetraacetic acid (EDTA), 2 mM MgCl2, 1 mM Dithiothreitol (DTT), one tablet of cOmplete, EDTA-free (per 50 ml) and 250 mM sucrose by 20 strokes in a potter homogenizer on ice. Debris was removed (5 min at 1000 × g, 0°C), membranes were collected at 100,000 × g, 60 min at 0°C, suspended and stored at −80°C in 20 mM MOPS, pH 7.5, 0.5 mM EDTA, 2 mM MgCl2. […] Three cerebral cortices were dissected and homogenized in 4.5 ml cold 48 mM Tris–HCl, pH 7.4, 12 mM MgC1_2, and 0.1 mM Ethylene glycol-bis(β-aminoethyl ether)-N,N,N′,N′-tetraacetic acid (EGTA) with a Polytron hand disperser (Kinematica AG, Switzerland). […] The pellet was washed once with 5 ml 1 mM KHCO3. The final suspension in 2 ml 1 mM KHCO3 was stored in aliquots at −80°C.
In a volume of 10 μl, AC activities were measured using 1 mM ATP, 2 mM MgCl2, 3 mM creatine phosphate, 60 μg/ml creatine kinase, and 50 mM MOPS pH 7.5. The cAMP assay kit from Cisbio (Codolet, France) was used for detection according to the supplier’s instructions. For each assay, a cAMP standard curve was established. EC50 and IC50 values were calculated by GraphPad Prism version 8.4.3 for Windows, GraphPad Software, San Diego, CA, USA, https://www.graphpad.com .

mAC5 = molecular target: T5, mAC5 (Homo sapiens, UniProt O95622); experiment: AC assay, Gsα-stimulated mAC5 in membranes from transfected HEK293 cells; conditions: 20µM fatty acid concentration
T5 construct: Human mAC genes were from GenScript and fitted with a C-terminal FLAG-tag; FLAG (C); made in house; host or cells: HEK293, permanently transfected; membrane preparation
Method in brief: as §1

mAC9 = molecular target: T6, mAC9 (Homo sapiens, UniProt O60503); experiment: AC assay, Gsα-stimulated mAC9 in membranes from transfected HEK293 cells; conditions: for mAC9 activity (%);(100% = Gsα stimulation) stimulated by 300nM Gsα: single experiments
T6 construct: Human mAC genes were from GenScript and fitted with a C-terminal FLAG-tag; FLAG (C); made in house; host or cells: HEK293, permanently transfected; membrane preparation
Method in brief: as §1

mAC1 = molecular target: T7, mAC1 (Homo sapiens, UniProt Q08828); experiment: AC assay, Gsα-stimulated mAC1 in membranes from transfected HEK293 cells; conditions: 20 µM fatty acid; 300 nM Gsα; single experiments
T7 construct: Human mAC genes were from GenScript and fitted with a C-terminal FLAG-tag; FLAG (C); made in house; host or cells: HEK293, permanently transfected; membrane preparation
Method in brief: as §1

mAC3 = molecular target: T8, mAC3 (Homo sapiens, UniProt O60266); experiment: AC assay, Gsα-stimulated mAC3 in membranes from transfected HEK293 cells
T8 construct: Human mAC genes were from GenScript and fitted with a C-terminal FLAG-tag; FLAG (C); made in house; host or cells: HEK293, permanently transfected; membrane preparation
Method in brief: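 EC50 and IC50 values come from cAMP production, read with a Cisbio cAMP kit and converted via a standard curve. Assay mix held 1 mM ATP, 2 mM MgCl2, 3 mM creatine phosphate and 60 μg/ml creatine kinase in 50 mM MOPS pH 7.5, using transfected HEK293 membranes.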

mAC7 = molecular target: T9, mAC7 (Homo sapiens, UniProt P51828); experiment: AC assay, Gsα-stimulated mAC7 in membranes from transfected HEK293 cells; conditions: Figure 5-figure supplement 2 left, 20 µM
T9 construct: Human mAC genes were from GenScript and fitted with a C-terminal FLAG-tag; FLAG (C); made in house; host or cells: HEK293, permanently transfected; membrane preparation
Method in brief: as §1

T7 sequence (Q08828 whole entry): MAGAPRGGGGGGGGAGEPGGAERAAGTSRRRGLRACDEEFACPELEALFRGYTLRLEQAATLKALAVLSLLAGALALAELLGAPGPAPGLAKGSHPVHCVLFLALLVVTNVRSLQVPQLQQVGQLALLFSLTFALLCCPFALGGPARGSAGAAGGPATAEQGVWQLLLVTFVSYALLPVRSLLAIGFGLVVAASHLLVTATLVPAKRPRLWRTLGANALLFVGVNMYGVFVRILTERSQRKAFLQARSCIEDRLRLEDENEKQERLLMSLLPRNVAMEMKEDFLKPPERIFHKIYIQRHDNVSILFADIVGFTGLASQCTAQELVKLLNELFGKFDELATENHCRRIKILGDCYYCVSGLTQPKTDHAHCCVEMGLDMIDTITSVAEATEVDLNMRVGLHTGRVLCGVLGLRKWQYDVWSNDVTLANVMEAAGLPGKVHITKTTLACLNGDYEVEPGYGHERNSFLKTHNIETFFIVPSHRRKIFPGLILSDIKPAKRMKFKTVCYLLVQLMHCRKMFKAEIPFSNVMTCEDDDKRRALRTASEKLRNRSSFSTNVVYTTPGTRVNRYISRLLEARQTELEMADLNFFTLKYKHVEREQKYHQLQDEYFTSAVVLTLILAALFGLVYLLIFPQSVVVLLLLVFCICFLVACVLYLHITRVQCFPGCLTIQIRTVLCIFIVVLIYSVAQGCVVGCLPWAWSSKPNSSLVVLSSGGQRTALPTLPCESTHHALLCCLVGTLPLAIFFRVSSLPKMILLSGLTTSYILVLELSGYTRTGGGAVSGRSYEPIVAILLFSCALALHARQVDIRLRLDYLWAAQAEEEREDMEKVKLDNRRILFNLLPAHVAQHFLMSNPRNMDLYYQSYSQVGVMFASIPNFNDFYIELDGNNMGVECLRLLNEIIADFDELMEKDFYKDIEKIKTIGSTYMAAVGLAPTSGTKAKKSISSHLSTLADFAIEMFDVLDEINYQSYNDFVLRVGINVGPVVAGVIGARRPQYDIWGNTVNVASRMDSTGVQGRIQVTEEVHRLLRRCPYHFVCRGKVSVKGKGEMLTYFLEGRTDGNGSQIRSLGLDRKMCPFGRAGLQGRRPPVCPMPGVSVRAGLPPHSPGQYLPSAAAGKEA
T6 sequence (O60503 whole entry): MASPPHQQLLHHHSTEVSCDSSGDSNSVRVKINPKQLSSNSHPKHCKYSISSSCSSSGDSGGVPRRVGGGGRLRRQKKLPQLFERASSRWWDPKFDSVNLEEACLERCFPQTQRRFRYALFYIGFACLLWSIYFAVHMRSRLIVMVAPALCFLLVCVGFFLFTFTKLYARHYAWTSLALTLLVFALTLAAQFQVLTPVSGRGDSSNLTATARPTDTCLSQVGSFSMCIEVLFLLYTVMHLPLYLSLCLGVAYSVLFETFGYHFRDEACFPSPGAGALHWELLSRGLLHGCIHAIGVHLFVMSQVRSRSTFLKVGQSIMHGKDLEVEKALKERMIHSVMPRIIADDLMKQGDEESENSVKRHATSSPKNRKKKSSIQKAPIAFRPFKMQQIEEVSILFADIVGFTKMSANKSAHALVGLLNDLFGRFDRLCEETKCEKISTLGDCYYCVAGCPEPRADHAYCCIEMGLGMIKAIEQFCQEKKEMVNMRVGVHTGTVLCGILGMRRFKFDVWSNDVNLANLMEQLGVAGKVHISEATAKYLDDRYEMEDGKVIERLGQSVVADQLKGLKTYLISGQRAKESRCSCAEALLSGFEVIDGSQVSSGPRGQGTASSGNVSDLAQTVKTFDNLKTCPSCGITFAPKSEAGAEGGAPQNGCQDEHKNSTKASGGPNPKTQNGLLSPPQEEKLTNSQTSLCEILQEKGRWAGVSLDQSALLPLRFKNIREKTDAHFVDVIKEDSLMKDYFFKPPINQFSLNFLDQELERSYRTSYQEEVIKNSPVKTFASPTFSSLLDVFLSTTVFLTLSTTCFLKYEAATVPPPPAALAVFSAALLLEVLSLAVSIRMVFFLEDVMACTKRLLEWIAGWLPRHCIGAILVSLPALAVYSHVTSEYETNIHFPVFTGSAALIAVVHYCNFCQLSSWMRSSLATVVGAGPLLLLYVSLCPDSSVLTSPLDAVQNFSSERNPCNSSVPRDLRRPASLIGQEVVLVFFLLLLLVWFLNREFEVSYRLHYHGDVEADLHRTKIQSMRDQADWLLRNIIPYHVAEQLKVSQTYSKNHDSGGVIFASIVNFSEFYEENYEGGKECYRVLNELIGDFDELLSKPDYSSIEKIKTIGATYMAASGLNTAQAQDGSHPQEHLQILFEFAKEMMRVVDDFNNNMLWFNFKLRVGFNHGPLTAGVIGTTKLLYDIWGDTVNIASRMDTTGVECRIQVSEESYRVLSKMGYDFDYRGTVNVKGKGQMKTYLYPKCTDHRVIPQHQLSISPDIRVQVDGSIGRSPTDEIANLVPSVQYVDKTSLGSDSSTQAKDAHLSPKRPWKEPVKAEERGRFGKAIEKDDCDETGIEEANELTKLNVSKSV
T6 sequence (P63092 2-394 Q227L partner): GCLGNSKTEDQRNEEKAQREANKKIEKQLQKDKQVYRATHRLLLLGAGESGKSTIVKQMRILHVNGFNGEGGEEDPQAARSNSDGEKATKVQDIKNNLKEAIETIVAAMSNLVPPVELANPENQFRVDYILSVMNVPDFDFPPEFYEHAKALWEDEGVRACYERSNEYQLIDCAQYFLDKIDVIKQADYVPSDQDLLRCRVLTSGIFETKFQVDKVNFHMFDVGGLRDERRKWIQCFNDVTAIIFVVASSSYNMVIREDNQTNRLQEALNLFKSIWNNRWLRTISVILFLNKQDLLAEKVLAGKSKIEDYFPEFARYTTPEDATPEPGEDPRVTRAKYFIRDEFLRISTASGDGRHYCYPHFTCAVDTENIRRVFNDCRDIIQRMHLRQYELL
T8 sequence (O60266 whole entry): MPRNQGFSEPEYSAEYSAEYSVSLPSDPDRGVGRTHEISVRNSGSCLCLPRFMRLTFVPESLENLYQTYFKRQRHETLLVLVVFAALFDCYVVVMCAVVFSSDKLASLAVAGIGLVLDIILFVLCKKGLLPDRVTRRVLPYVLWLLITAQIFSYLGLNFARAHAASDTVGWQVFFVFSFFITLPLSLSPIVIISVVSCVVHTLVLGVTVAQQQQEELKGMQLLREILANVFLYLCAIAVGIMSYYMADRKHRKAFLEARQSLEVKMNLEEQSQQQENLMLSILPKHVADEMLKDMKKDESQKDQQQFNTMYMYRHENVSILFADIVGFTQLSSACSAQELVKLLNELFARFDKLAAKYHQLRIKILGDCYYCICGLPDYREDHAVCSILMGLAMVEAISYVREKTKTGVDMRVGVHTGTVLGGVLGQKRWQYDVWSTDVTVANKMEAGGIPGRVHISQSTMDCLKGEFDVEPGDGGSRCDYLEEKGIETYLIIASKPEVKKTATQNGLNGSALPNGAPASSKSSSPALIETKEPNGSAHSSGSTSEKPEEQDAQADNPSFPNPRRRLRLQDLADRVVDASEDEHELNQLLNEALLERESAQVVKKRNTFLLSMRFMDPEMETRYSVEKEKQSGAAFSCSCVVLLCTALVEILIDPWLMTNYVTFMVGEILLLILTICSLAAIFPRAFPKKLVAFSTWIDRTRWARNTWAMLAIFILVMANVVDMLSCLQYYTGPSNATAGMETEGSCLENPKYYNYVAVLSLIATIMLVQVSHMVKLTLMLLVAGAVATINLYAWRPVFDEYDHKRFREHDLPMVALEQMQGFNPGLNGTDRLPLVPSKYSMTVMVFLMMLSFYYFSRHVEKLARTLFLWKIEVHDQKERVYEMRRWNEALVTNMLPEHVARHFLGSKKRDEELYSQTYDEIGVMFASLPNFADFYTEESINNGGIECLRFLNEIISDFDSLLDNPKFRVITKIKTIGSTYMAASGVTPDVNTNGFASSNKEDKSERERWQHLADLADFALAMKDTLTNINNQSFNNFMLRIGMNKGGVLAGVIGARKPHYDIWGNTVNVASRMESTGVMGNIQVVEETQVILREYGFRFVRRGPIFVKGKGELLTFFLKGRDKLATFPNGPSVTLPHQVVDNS
T8 sequence (P63092 whole entry Q227L partner): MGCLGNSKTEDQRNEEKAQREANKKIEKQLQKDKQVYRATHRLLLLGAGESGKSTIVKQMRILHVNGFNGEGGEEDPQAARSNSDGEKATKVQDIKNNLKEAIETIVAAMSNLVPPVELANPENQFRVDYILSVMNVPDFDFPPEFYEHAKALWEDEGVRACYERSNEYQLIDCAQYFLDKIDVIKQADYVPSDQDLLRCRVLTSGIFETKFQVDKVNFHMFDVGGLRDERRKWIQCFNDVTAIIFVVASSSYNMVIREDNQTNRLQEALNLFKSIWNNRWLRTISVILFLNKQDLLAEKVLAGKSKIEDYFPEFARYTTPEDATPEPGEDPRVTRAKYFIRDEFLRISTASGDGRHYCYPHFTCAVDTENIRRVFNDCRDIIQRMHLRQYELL

CCCCCC/C=C\CCCCCCCCCC(=O)O [cis-Vaccenic acid, cis-Vaccenic ((11E)-octadecenoic) acid]
mAC6 activity [%] (100% = 300nM Gsα stimulation) (mAC6): 91% and 114% | mAC4 activity [%] (100% = 300nM Gsα stimulation); 20µM fatty acid concentration (mAC4): 78% and 66% and 107% | Effect of lipid on 300 nM Gsα-stimulated mAC2 (mAC2; 20 µM, in words): doubled | mAC2 activity [%] (100% = 300nM Gsα stimulation); 20µM fatty acid concentration (mAC2; Figure 5-figure supplement 1 left, 20 µM): 243% and 149% and 146% and 170% and 233% | mAC2 activity (%);(100% = Gsα stimulation) stimulated by 300nM Gsα (mAC2; cis-Vaccenic acid 1 µM): 120% and 97% and 119% and 112% and 115% | mAC2 activity (%);(100% = Gsα stimulation) stimulated by 300nM Gsα (mAC2; cis-Vaccenic acid 3 µM): 117% and 107% and 130% and 128% and 95% | mAC2 activity (%);(100% = Gsα stimulation) stimulated by 300nM Gsα (mAC2; cis-Vaccenic acid 6 µM): 93% and 112% and 130% and 120% and 121% | mAC2 activity (%);(100% = Gsα stimulation) stimulated by 300nM Gsα (mAC2; cis-Vaccenic acid 10 µM): 141% and 119% and 166% and 123% and 169% | mAC2 activity (%);(100% = Gsα stimulation) stimulated by 300nM Gsα (mAC2; cis-Vaccenic acid 20 µM): 146% and 170% and 233% and 243% and 149% | EC50 (mAC2; enhancement of 300 nM Gsα-stimulated activity): 10.6 µM | activity at 0.3 µM (mAC2; read-out: mAC2 activity (%);(100% = Gsα stimulation) stimulated by 300nM Gsα, cis-Vaccenic acid 0.3 µM): 100% | mAC8 activity [%] (100% = 300nM Gsα stimulation) (mAC8): 107% and 123% | mAC5 activity [%] (100% = 300nM Gsα stimulation) (mAC5): 124% and 95% | mAC9 activity (%);(100% = Gsα stimulation) stimulated by 300nM Gsα (mAC9; 6 µM fatty acid): 116% and 153% and 119% and 113% | mAC9 activity (%);(100% = Gsα stimulation) stimulated by 300nM Gsα (mAC9; 8 µM fatty acid): 174% | EC50 (mAC9; enhancement of 300 nM Gsα-stimulated activity, read-out: EC50 for mAC9): 8.5 µM | mAC1 activity [%] (100% = 300nM Gsα stimulation); 20µM fatty acid concentration (mAC1): 61% and 67% and 86% | Effect of lipid on 300 nM Gsα-stimulated mAC3 (mAC3; 20 µM, in words): efficient enhancers | mAC3 activity [%] (100% = 300nM Gsα stimulation) (mAC3; fatty acid 20 µM, individual experiments): 429% and 498% and 460% and 363% and 411% | mAC7 activity [%] (100% = 300nM Gsα stimulation); 20µM fatty acid concentration (mAC7): 148% and 179%
